# Legend:
# rats [1] = experiment: Study 001–3 acute oral toxicity in rats; assay type: in vivo, rat
# Method: (§1) Toxicology. We performed toxicology studies for SNV that consisted of acute subcutaneous, intravenous and oral toxicity in rats, acute dermal toxicity in rabbits, skin sensitization using adjuvant and patch test in guinea pigs, and single and repeated (for 13 weeks) dose toxicity studies in rats. The latter was a 90-days repeated dose toxicity study, consisting of SNV once a day at three different doses to the penis and vagina of male and female rats, respectively. The compound was tested for the treatment of erectile dysfunction. The active dose (7 µg SNV) was chosen as the lowest dose for the study. The highest dosage group in the repeated dose toxicity study received 3,500 µg ([Gozes et al., 1994]). For study 001 (parts 1 through 3), the 1× dose consisted of 0.5 mg SNV dissolved in 7.1 ml vehicle (3.55 ml 10% Sefsol [glycerin monocaprylate] + 3.55 ml isopropanol) and 100µl/animal were administered; the 1000X dose consisted of 91 mg SNV dissolved in 1.3 ml vehicle (0.65 ml 10% Sefsol +0.65 ml isopropanol) and 100µl/animal were administered. For studies 002 through 004, the indicated doses of SNV (Table 1) were dissolved in 0.25 ml 10% Sefsol +0.25 ml 40% isopropanol (vehicle). The methodology for each of the toxicology studies is detailed in Table 1.
# [2] = test system: Primary murine macrophages/preosteoclasts; experiment: MTT viability assay; assay type: cell-based, mouse; settings: 10^-6 M, 20 ng/ml M-CSF, 1, 3 and 5 days of treatment, N=5
# Method: MTT assay. For proliferation assay, macrophages were plated (4000 cells/well) into 96-well plate with standard medium supplemented with 20 ng of M-CSF. Cells were treated as indicated with either TiP, SNV, VIP (10^−6 M) or vehicle at first day of incubation. Cells viability was determined using dimethylthiazol-diphenyl-tetrazolium-bromide (MTT) after 1, 3 or 5 days. MTT was added to a final concentration of 5 mg/ml and incubated for 4 h at 37°C. After complete solubilization of the die in DMSO, plates were read at 570 nm in a colorimetric plate reader.
# FIGURE 4 VIP and SNV alleviate the osteoclastogenic effect of TiP-induced inflammation. (A) Primary BMDM were exposed to TiP and RNA was collected after 24 h. mRNA expression are presented as Mean±SD fold change versus Control. * p<0.05 vs. Control. (B-D) Primary murine preosteoclasts were cultured in 20 ng/ml M-CSF and 50 ng/ml RANKL for 48 h. Conditioned medium from macrophages (Control) and macrophages exposed to Ti particles (Ti, as in A) was then added together with 10^-6M of VIP or SNV (or saline) for 48 h before TRAP staining. Data are Mean±SD for osteoclast % surface area (B) and number per well (C). (D) Representative images all acquired at a 4x original magnification. The scale bar for all images is in the upper left panel. n=8, #p<0.05 vs. Control; *p<0.05 vs. Ti, ANOVA. […]
# [3] = test system: TiP-induced osteolysis on mouse calvaria; experiment: TiP-induced osteolysis, mouse calvarial model (µCT); assay type: in vivo
# rats [4] = experiment: Study 001–2 acute intravenous toxicity in rats; assay type: in vivo, rat; settings: for Necrotic reaction at the site of injection: vehicle group 2: 55%
# Method: as §1
# [5] = Rat model of transepithelial penetrability (vaginal delivery of 125I-SNV, organ radioactivity); assay type: in vivo; settings: 125I-labelled SNV
# Description: Rat model of transepithelial penetrability. Because of the high hydrophobicity of SNV, we employed an iodination labeling protocol based on the Chloramine T method ([Markwell, 1982]) using 1 mCi Na^125I with a few modifications that included 1) the dissolution of SNV in dimethylformamide (DMF), 2) replacement of the phosphate buffer with 0.2 M HEPES (pH = 7.6), a more compatible buffer, and 3) reaction termination by the addition of sodium metabisulfite and KI. The pharmacokinetic profile of ^125I-SNV absorption and distribution was evaluated following vaginal delivery of the compound to rats. Wistar rats at the estrus phase received 50 µl (7.0 µCi/rat, 15 million CPM, 100 Ci/mM specific activity) of ^125I-SNV dissolved in 5% Sefsol, applied directly in the vagina, using a P100 micro pipettor. At the indicated time points, we anesthetized the rats with chloral hydrate and collected blood before cervical dislocation. We then harvested the uterus, liver, lungs, heart, intestine, kidneys and vagina (duplicate samples were taken from each organ). Organs were weighed and radioactivity levels were measured using a gamma counter. Each point on the chart represents at least two rats.
# 7.0 microCi/rat (15 million CPM, 100 Ci/mmole specific activity) of radioactive SNV was delivered in the vagina of rats at T0. Each point on the chart represents at least two rats. Levels of radioactivity were monitored over 250 min to assess the remaining amount of SNV in the vagina (A) versus its distribution in the indicated organs (B) as a measure of its penetrability through the vaginal epithelium. Data are Mean ± SD.
# rats [6] = experiment: Study 001–1 acute subcutaneous toxicity in rats; assay type: in vivo, rat
# Method: as §1
# [7] = matrix not given, ref Gozes et al., 1994, 1996; cited from earlier work
# Description: (§2) VIP derivatives and conjugates were designed to include a lipophilic moiety or a shortened VIP chain ([Gozes and Fridkin, 1992]; [Gozes et al., 1994]; [Gozes et al., 1995]; [Gozes et al., 1996]; [Gozes et al., 1999]). Stearyl-norleucine-VIP (Stearyl-Nle^17VIP, SNV) is a lipophilic compound consisting of a VIP molecule with an N-terminal attachment of stearic acid to increase cell and tissue bioavailability and an exchange of the oxidation-vulnerable methionine at position 17 with the stable norleucine.
# neuroprotection = settings: ref Ashur-Fabian et al., 1999; cited from earlier work
# Description: as §2
# [8] = oral, 7 µg/rat and 7 mg/rat groups
# [9] = 7.0 µCi/rat in 5% Sefsol, vaginal delivery, Wistar rats at estrus, monitored over 250 min, gamma counter, at least two rats per point
# [10] = subcutaneous, 7 mg/rat (1000X, group 4)
substance,measurement,setting,value
"Stearyl–HSDAVFTDNYTRLRKQ-Nle-AVKKYLNSILN-NH2 [SNV, Stearyl-norleucine-VIP, lipophilic VIP derivative with N-terminal stearic acid and norleucine in place of methionine at position 17]",Acute median oral lethal dose,"rats [1]; oral by metal catheter, S.D. rats, 6 males + 6 females per group, 7 mg/rat = maximal practical dose","Under the conditions of this study, the acute median oral lethal dose of SNV was found to be greater the 7 mg/rat, which is the maximal practical dose"
same,Mortality,rats [1]; [8],None
same,Reactions,rats [1]; [8],None
same,"Viability of the cells (MTT, optical density)",[2],neither VIP nor SNV affected the viability
same,Calvaria thickness,"[3]; 2 × 10^–8 mol SNV in fibrinogen-thrombin membrane with TiP, 5 weeks, µCT",no significant differences
same,Lowering of pit resorption volume (PRV) vs Ti,"[3]; mouse, in vivo",60%
same,Lowering of pit resorption volume as percentage of the total tissue volume (PRV/TV) vs Ti,"[3]; mouse, in vivo",60%
same,Mortality,"rats [4]; intravenous, 7 µg/rat (1×, group 3)",7 rats (3 males and 4 females) out of 12 died within 3 h after administration in group 4 (SNV -1000X). One rat died in group 2 within 5–24 h after administration. No mortality occurred in groups 1 and 3
same,Necrotic reaction at the site of injection,"rats [4]; intravenous, 7 µg/rat (group 3)",58%
same,Necrotic reaction at the site of injection,"rats [4]; intravenous, 7 mg/rat (group 4)",100%
same,Reactions: body weight,"rats [4]; intravenous, all groups, initial weight loss recovered during the study","Necrotic reaction was observed at the site of injection in 55% group 2, 58% group 3 and 100% group 4. Most surviving rats displayed normal body weight, and some weight loss observed initially was recovered during the study"
same,"Acute intravenous median lethal dose, male rats","rats [4]; tail vein, S.D. rats, estimated",7 mg/male rat
same,"Levels of SNV in the blood, heart, lungs, liver, gut, uterus and kidneys (radioactivity)",[5]; [9],steadily increased
same,Local levels of SNV in the vagina (radioactivity),[5]; [9],decline over time
same,Penetrability through the vaginal epithelium,"[5]; vaginal delivery in rats, over 250 min",high penetrability
same,Acute median lethal subcutaneous dose,"rats [6]; S.D. rats, 6 males + 6 females per group, single injection close to penile or vaginal tissue, 14 observation days, 7 mg/rat = maximal practical dose","Under the conditions of this study, the acute median lethal subcutaneous dose of SNV was found to be greater the 7 mg/rat, which is the maximal practical dose"
same,Mortality,"rats [6]; subcutaneous, 7 µg/rat (1×), 14 observation days",None
same,Mortality,"rats [6]; subcutaneous, 7 mg/rat (1000X), 14 observation days",None
same,Reactions: body weight,rats [6]; [10],"significant weight loss until 8th day, returning to original weight on day 12–14"
same,Reactions: diarrhea,rats [6]; [10],"Diarrhea in 2 males of group 4 (1000X) 5–24 after injection, lasting for 2 days"
same,Reactions: skin necrosis,"rats [6]; subcutaneous, affected treatment group(s) not specified",Necrosis of abdominal (male only) or penile skin on day 13–14 after injection
same,Half-life,[7],15 min
same,Potency relative to VIP in neuroprotection,neuroprotection,1000 fold

# — article PMC8131842, “Therapeutic Potential of Vasoactive Intestinal Peptide and its Derivative Stearyl-Norleucine-VIP in Inflammation-Induced Osteolysis” (Frontiers in Pharmacology, 2021)
